Laboratory results from PMC5937082, “Prediction of Lipophilicity and Pharmacokinetics of Chloroacetamides by Chemometric Approach” (Iranian Journal of Pharmaceutical Research : IJPR, 2018).

Test: Lipophilicity by reversed-phase thin-layer chromatography (RPTLC, RP-18W/UV254 plates)
Type: physicochemical
Settings: φ = 0.34 - 0.56 v/v, room temperature
Method: During chromatographic examinations commercial plates (RP-18W/UV254 Macherey-Nagel GmBH and Co., Duren, Germany) were used as the stationary phase. Mixtures of LC grade organic modifiers (J. T. Baker, Deventer, the Netherlands) and filtered bi-distilled water were used as the mobile phase.
The tested chloroacetamides were dissolved in ethanol (analytical purity) in concentration 2 mg mL^–1. About 0.2 µL of freshly prepared solution of each compound was spotted on the plates which were then developed by the ascending technique in the unsaturated chambers at room temperature with an aqueous solutions of two organic modifiers: methanol (φ = 0.34 - 0.56, v/v) and acetone (φ = 0.34 - 0.56, v/v). The visualization of the tested compounds on the dried developed plates was performed under a UV light at λ= 254 nm. In both applied modifiers for each composition three chromatograms were developed and then the average Rf values were calculated.
From the experimentally obtained Rf values, for each composition of the mobile phase, RM values were calculated according to the Equation: […]
The relationships between the retention values, RM, of the compound and the volume fraction of the organic modifier in the mobile phase, φ, were given by:
Where intercept, RM^0, represents the chromatographic retention constant, while the slope of the linear plot, m, which is the change in RM is caused by the unit of the organic modifier concentration in the mobile phase and depends on the properties of the solute. Commonly, it is related to the specific hydrophobic surface area of the compound ([39]). Chromatographic parameter m can be applied as alternative measure of lipophilicity, also ([40], [41]).Values of these parameters obtained for chloroacetamides in the used modifiers are given in Table 4.

Row | SMILES | R M ^0 (chromatographic retention constant, intercept) (acetone-water mobile phase) | m (slope of RM vs φ) (acetone-water mobile phase) | R M ^0 (chromatographic retention constant, intercept) (methanol-water mobile phase) | m (slope of RM vs φ) (methanol-water mobile phase)
1 | O=C(CCl)Nc1cccc(Br)c1 [Compound 3Br] | 1.780 (±0.105) | -3.105 (±0.238) | 1.958 (±0.115) | -3.151 (±0.251)
2 | N#Cc1cccc(NC(=O)CCl)c1 [Compound 3CN] | 1.186 (±0.101) | -2.278 (±0.218) | 1.362 (±0.082) | -2.726 (±0.182)
3 | O=C(CCl)Nc1ccc(Br)cc1 [Compound 4Br] | 1.849 (±0.087) | -3.175 (±0.195) | 1.951 (±0.100) | -3.137 (±0.218)
4 | Cc1ccc(NC(=O)CCl)cc1 [Compound 4CH3] | 1.370 (±0.097) | -2.583 (±0.220) | 1.542 (±0.067) | -2.673 (±0.146)
5 | N#Cc1ccc(NC(=O)CCl)cc1 [Compound 4CN] | 1.074 (±0.117) | -2.033 (±0.263) | 1.382 (±0.039) | -2.749 (±0.086)
6 | CC(=O)c1ccc(NC(=O)CCl)cc1 [Compound 4COCH3] | 1.118 (±0.077) | -2.396 (±0.173) | 1.275 (±0.121) | -2.549 (±0.263)
7 | O=C(CCl)Nc1ccc(Cl)cc1 [Compound 4Cl] | 1.636 (±0.139) | -2.945 (±0.313) | 1.788 (±0.140) | -2.944 (±0.306)
8 | O=C(CCl)Nc1ccc(F)cc1 [Compound 4F] | 1.341 (±0.042) | -2.440 (±0.095) | 1.354 (±0.088) | -2.486 (±0.192)
9 | O=C(CCl)Nc1ccc(I)cc1 [Compound 4I] | 1.963 (±0.143) | -3.375 (±0.323) | 2.124 (±0.122) | -3.282 (±0.266)
10 | COc1ccc(NC(=O)CCl)cc1 [Compound 4OCH3] | 1.130 (±0.115) | -2.431 (±0.258) | 1.247 (±0.122) | -2.478 (±0.265)
11 | O=C(CCl)Nc1ccc(O)cc1 [Compound 4OH] | 0.763 (±0.030) | -1.865 (±0.068) | 1.577 (±0.069) | -3.032 (±0.154)
12 | O=C(CCl)Nc1ccccc1 [H] | 1.106 (±0.132) | -2.225 (±0.285) | 1.171 (±0.123) | -2.309 (±0.268)
